Test results as given in the OligoGym collection.
These antisense oligonucleotides have a phosphorothioate backbone; sugars and methylation of C are not fully specified.

Tests used:
Details in all cases: ASO
BIRC5 = biological target: BIRC5
XIAP = biological target: XIAP
MAP2K2 = biological target: MAP2K2
MAP3K5 = biological target: MAP3K5
Also: test concentration or dose not given here.

Sequence AAAAGGAGTATCTGCCAG has a remaining target (mRNA or protein) (fraction of control) (BIRC5) of 0.61.
In the case of AAAAGTCATCTTCTCTTGAA, the remaining target (mRNA or protein) (fraction of control) (XIAP) is reported as 0.58.
AAACTGTTAAAAGTCATCTT showed a remaining target (mRNA or protein) (fraction of control) (XIAP) of 0.81.
AAAGAGAGAGAGAGAGAG showed a remaining target (mRNA or protein) (fraction of control) (BIRC5) of 0.82.
Sequence AACACACCGTTGGGCAGC has a remaining target (mRNA or protein) (fraction of control) (MAP2K2) of 0.13.
Work on AAGAAGATCAGCTCTGTATT yielded a remaining target (mRNA or protein) (fraction of control) (MAP3K5) of 0.49.
In the case of AAGCAGCCACTGTTACCA, the remaining target (mRNA or protein) (fraction of control) (BIRC5) is reported as 0.36.
Sequence AAGTCATCTTCTCTTGAAAA has a remaining target (mRNA or protein) (fraction of control) (XIAP) of 0.6.
AATCTGCAATTTGGGGATAC was tested, and the remaining target (mRNA or protein) (fraction of control) (XIAP) was 0.93.
ACAATACATGGCAGGGTTCC gave a remaining target (mRNA or protein) (fraction of control) (XIAP) of 0.41.
In the case of ACAGGAAGGCTGGTGGCA, the remaining target (mRNA or protein) (fraction of control) (BIRC5) is reported as 0.3.
ACAGGCAGAAGCACCTCT was tested, and the remaining target (mRNA or protein) (fraction of control) (BIRC5) was no less than 1.
ACAGTTGAAACATCTAAT showed a remaining target (mRNA or protein) (fraction of control) (BIRC5) of no less than 1.
For ACCGGCTTATAGTGTCTTCA, the remaining target (mRNA or protein) (fraction of control) (MAP3K5) was 0.73.
For ACGCAGGGAGCCCGGCCA, the remaining target (mRNA or protein) (fraction of control) (MAP2K2) was 0.29.
Sequence ACTGTGGAAGGCTCTGCC has a remaining target (mRNA or protein) (fraction of control) (BIRC5) of no less than 1.
For ACTGTTAAAAGTCATCTTCT, the remaining target (mRNA or protein) (fraction of control) (XIAP) was 0.87.
AGAAAATGGACAGAATCCTA showed a remaining target (mRNA or protein) (fraction of control) (XIAP) of 0.74.
Sequence AGCATGTTGTTCCCAAGGGT has a remaining target (mRNA or protein) (fraction of control) (XIAP) of 0.54.
Sequence AGCGTCGCCCGTCCCCAG has a remaining target (mRNA or protein) (fraction of control) (MAP2K2) of 0.15.
With AGCTTCCTGGCCATGATG the remaining target (mRNA or protein) (fraction of control) (MAP2K2) was 0.36.
Sequence AGGACTGTGACAGCCTCA has a remaining target (mRNA or protein) (fraction of control) (BIRC5) of 0.38.
For AGGGACACTGCCTTCTTC, the remaining target (mRNA or protein) (fraction of control) (BIRC5) was 0.57.
AGGGTTTCCAGGGTGGCGCC gave a remaining target (mRNA or protein) (fraction of control) (MAP3K5) of 0.52.
Sequence AGTAAACAAATACTGGATTT has a remaining target (mRNA or protein) (fraction of control) (MAP3K5) of 0.77.
ATCTCAAGGTGGATCAGC gave a remaining target (mRNA or protein) (fraction of control) (MAP2K2) of 0.71.
Work on ATGACAGGGAGGAGGGCG yielded a remaining target (mRNA or protein) (fraction of control) (BIRC5) of no less than 1.
Sequence ATGATCTGGTTCCGGATG has a remaining target (mRNA or protein) (fraction of control) (MAP2K2) of 0.35.
ATGTCATTGAGTATAGATTC was tested, and the remaining target (mRNA or protein) (fraction of control) (MAP3K5) was 0.69.
ATGTTGTTGGCCATGCTGAA gave a remaining target (mRNA or protein) (fraction of control) (MAP3K5) of 0.31.
For ATTCGTATAGCTTCTTGTAC, the remaining target (mRNA or protein) (fraction of control) (XIAP) was 0.61.
ATTCTCTAATCACACACA was tested, and the remaining target (mRNA or protein) (fraction of control) (BIRC5) was 0.74.
For ATTTATAGTTGCTCCCAGAT, the remaining target (mRNA or protein) (fraction of control) (XIAP) was 0.58.
ATTTGTTAAGCCTATCTGAA showed a remaining target (mRNA or protein) (fraction of control) (XIAP) of 0.66.
Work on CAAATTCTCTGAGGCTTGCA yielded a remaining target (mRNA or protein) (fraction of control) (MAP3K5) of 0.54.
With CAAATTTAGAAATACTCACT the remaining target (mRNA or protein) (fraction of control) (MAP3K5) was 0.85.
Work on CAAGTCTGGCTCGTTCTC yielded a remaining target (mRNA or protein) (fraction of control) (BIRC5) of no less than 1.
Sequence CACTGCTCGAGGAGGTGGCC has a remaining target (mRNA or protein) (fraction of control) (MAP3K5) of 0.47.
CACTTCTTCCACCTCGGA was tested, and the remaining target (mRNA or protein) (fraction of control) (MAP2K2) was 0.31.
CAGATGTCCGACTGCACC was tested, and the remaining target (mRNA or protein) (fraction of control) (MAP2K2) was 0.32.
With CAGCTCAAGGGCGCCGCGCT the remaining target (mRNA or protein) (fraction of control) (MAP3K5) was 0.59.
CAGTAACATCTGTCTTTGTG showed a remaining target (mRNA or protein) (fraction of control) (MAP3K5) of 0.62.
CATCAACAAGCAAGTCGTTA gave a remaining target (mRNA or protein) (fraction of control) (MAP3K5) of 0.37.
Sequence CATCTCTCCGGGCCGGGCAG has a remaining target (mRNA or protein) (fraction of control) (MAP3K5) of 0.61.
Sequence CCACGCGAACAAAGCTGT has a remaining target (mRNA or protein) (fraction of control) (BIRC5) of 0.38.
CCAGAAGCTGCCCGGCGGCG gave a remaining target (mRNA or protein) (fraction of control) (MAP3K5) of 0.56.
In the case of CCGAATTCCCTTGACATCTC, the remaining target (mRNA or protein) (fraction of control) (MAP3K5) is reported as 0.62.
Work on CCGTGTGGAGAACGTGAC yielded a remaining target (mRNA or protein) (fraction of control) (BIRC5) of 0.78.
CCGTTGCCCGCGCCCAGC showed a remaining target (mRNA or protein) (fraction of control) (MAP2K2) of 0.24.
In the case of CCTCCGTGCTCATCTCTCCG, the remaining target (mRNA or protein) (fraction of control) (MAP3K5) is reported as 0.09.
CCTCTGCCAACGGGTCCC was tested, and the remaining target (mRNA or protein) (fraction of control) (BIRC5) was 0.96.
CCTGGAAGTGGTGCAGCC was tested, and the remaining target (mRNA or protein) (fraction of control) (BIRC5) was 0.84.
CGATGGCACGGCGCACTT showed a remaining target (mRNA or protein) (fraction of control) (BIRC5) of 0.28.
CGCCTCCGTGCTCATCTCTC showed a remaining target (mRNA or protein) (fraction of control) (MAP3K5) of 0.1.
Sequence CGCTGCCCGGCGGCGGCTCG has a remaining target (mRNA or protein) (fraction of control) (MAP3K5) of 0.78.
CGGTCGGTCGGCTCGAAT was tested, and the remaining target (mRNA or protein) (fraction of control) (MAP2K2) was 0.8.
Work on CGTCCGCCTCCGTGCTCATC yielded a remaining target (mRNA or protein) (fraction of control) (MAP3K5) of 0.12.
In the case of CGTGCCCACGAAGGAGTT, the remaining target (mRNA or protein) (fraction of control) (MAP2K2) is reported as 0.26.
With CGTGCTCATCTCTCCGGGCC the remaining target (mRNA or protein) (fraction of control) (MAP3K5) was 0.12.
CGTTCACAATATAGTCCA showed a remaining target (mRNA or protein) (fraction of control) (MAP2K2) of 0.4.
Sequence CTCATCTCTCCGGGCCGGGC has a remaining target (mRNA or protein) (fraction of control) (MAP3K5) of 0.3.
With CTCCCAGTTCATAAAATGGG the remaining target (mRNA or protein) (fraction of control) (MAP3K5) was 0.85.
For CTCCTTCTTCCCCGTCGA, the remaining target (mRNA or protein) (fraction of control) (MAP2K2) was 0.4.
Sequence CTCTGTCACCATTTTCATCA has a remaining target (mRNA or protein) (fraction of control) (MAP3K5) of 0.41.
CTGGTTCAGCCGCAGGGT was tested, and the remaining target (mRNA or protein) (fraction of control) (MAP2K2) was 0.34.
In the case of CTGTCTCCTCATCCACCT, the remaining target (mRNA or protein) (fraction of control) (BIRC5) is reported as 0.59.
With CTGTGCTGGACTTTGGTG the remaining target (mRNA or protein) (fraction of control) (MAP2K2) was 0.42.
CTTCCTCCGGGCCAGCAT showed a remaining target (mRNA or protein) (fraction of control) (MAP2K2) of 0.37.
Work on CTTCTGCTGCTCGTCAAG yielded a remaining target (mRNA or protein) (fraction of control) (MAP2K2) of 0.65.
